Values quoted from earlier work in patent US11571438B1, “Nutraceutical compositions to up-regulate SIRT1 and methods of use” (priority 2022, dated 2023).

Key:
mTOR = conditions: individual administration
AMPK = conditions: individual administration

SMILES | mTOR inhibition (mTOR) | AMPK activation (AMPK)
COc1ccc2cc3[n+](cc2c1OC)CCc1cc2c(cc1-3)OCO2 [berberine] | statistically significant increase | statistically significant increase
COc1cc(/C=C/C(=O)O)ccc1O [ferulic acid] | statistically significant increase | statistically significant increase
O=c1c(O)c(-c2ccc(O)c(O)c2)oc2cc(O)cc(O)c12 [quercetin] | statistically significant increase | statistically significant increase
OCCc1ccc(O)cc1 [tyrosol] | statistically significant increase | statistically significant increase
